Assay results from patent US11338021B2, “Combination therapies” (ENZYMATICA AB, priority 2015, dated 2022).
Entries after “also recorded” stand apart in the source; their conditions may differ.

How the values were obtained:
Format in all cases: cell-based
[1] = system: biofilms using a combination of Streptococcus pneumonia and Streptococcus mitis; assay: Dispersal of pre-grown model (super) biofilm in microtiter plate, crystal violet staining, absorbance at 492 nm; conditions: for biofilm disruption by antibiotic and cod trypsin combination compared with antibiotic alone: FIG. 1, Student's t test; for effect of antibiotic alone on biofilm formation: biofilms grown for 4 hours; for disruption of super biofilm by cod trypsins alone: FIGS. 4-6, compared with placebo, treated for 2 minutes
Experimental: Effects of combination of cod trypsins with selected antibiotics on biofilm dispersal. […] Biofilms using a combination of Streptococcus pneumonia and Streptococcus mitis were grown in a microtiter plate and used as a model for biofilm. The biofilm was treated with an antibiotic or a combination of the antibiotics and cod trypsins. The biofilms were stained with crystal violet followed by dissolution with acetic acid. Biofilm formation was measured as absorbance at 492 nm, and normalized to untreated biofilm. […] P values above bars indicate significance of difference between the two treatments as evaluated by Student's t test.
Effects of combination of cod trypsins with selected antibiotics on biofilm dispersal. […] Biofilms using a combination of Streptococcus pneumonia and Streptococcus mitis were grown in a microtiter plate and used as a model biofilm. The biofilm was treated with cod trypsins, an antibiotic, or a combination of the two. The biofilms were stained with crystal violet followed by dissolution with acetic acid. Biofilm formation was measured as absorbance at 492 nm, and normalized to untreated biofilm. […] P values above bars indicate significance of effects as evaluated by ANOVA analysis.
Each column represents one type of treatment or treatment combination, with the rows representing decreasing concentrations from top to bottom. After treatment biofilms are stained with crystal violet, with a darker colour representing more remaining biofilm. […] The lowest row represents blanks, where the first six holes represent untreated biofilm and the next six represent no biofilm.
Effects of cod trypsins on the super biofilm presented visually after biofilm staining with crystal violet. […] The super biofilm with a combination of Streptococcus pneumonia and Streptococcus mitis were grown in a microtiter plate. The biofilm was treated with cod trypsins or placebo for 2 minutes and the wells were stained to measure the presence (black wells) of biofilm or its absence (clear wells) after treatment.
After treatment the biofilms were stained with crystal violet, with a darker colour representing more remaining biofilm.
Effects of cod trypsins on the super biofilm as measured by spectrophotometry after crystal violet staining and dissolution in acetic acid. […] Biofilms using a combination of Streptococcus pneumonia and Streptococcus mitis were grown in a microtiter plate. The biofilm was treated with cod trypsins or placebo and the wells were stained with crystal violet followed by dissolution with acetic acid. Biofilm formation was measured as absorbance at 492 nm, and normalized to untreated biofilm. […] Data is presented as a bar-plot with the error bars indicating the standard error of the mean (SEM). Data for dilutions of placebo and cod trypsins treated bacterial biofilms are placed next to each other. The Log reduction of biofilm formation of Penzyme compared to that of placebo in the same dilution is above the bars, as is the level of significance indicated by asterisks (*), where * represents a P of <0.05, ** a P<0.01 and *** a P<0.001. Students T-test was used to calculate the significance.
Log reduction of super biofilm by cod trypsins at different concentrations. […] Biofilms using a combination of Streptococcus pneumonia and Streptococcus mitis were grown in a microtiter plate. The biofilm was treated with cod trypsins or placebo and the wells were stained with crystal violet followed by dissolution with acetic acid. Biofilm formation was measured as absorbance at 492 nm, and the reduction compared to placebo treated biofilm on a logarithmic scale.
Biofilms using a combination of Streptococcus pneumonia and Streptococcus mitis were grown in a microtiter plate. The biofilm was treated with an antibiotic or a combination of the antibiotics and cod trypsins. The biofilms were stained with crystal violet followed by dissolution with acetic acid.

bacteria = assay: Lethality of cod trypsin to bacteria (statement, no method given)
[2] = system: biofilm forming bacteria Streptococcus pneumonia and Streptococcus mitis; assay: Pre-treatment of planktonic bacteria before biofilm formation (4 hours), crystal violet staining, absorbance at 492 nm; conditions: FIGS. 7-8, compared with placebo, biofilms grown 4 hours, normalized to untreated biofilm
Experimental: Effects of cod trypsins pre-treatment on biofilm formation. […] Biofilms using a combination of Streptococcus pneumonia and Streptococcus mitis were grown in a microtiter plate after being briefly treated with cod trypsins or placebo. After allowing the biofilms to grow for 4 hours the wells were stained with crystal violet followed by dissolution with acetic acid. Biofilm formation was measured as absorbance at 492 nm, and normalized to untreated biofilm. […] Data is presented as a boxplot where the top of the rectangle indicates the third quartile, a horizontal line near the middle of the rectangle indicates the median, and the bottom of the rectangle indicates the first quartile. A vertical line extends from the top of the rectangle to indicate the maximum value, and another vertical line extends from the bottom of the rectangle to indicate the minimum value.
Effects of cod trypsin pre-treatment on biofilm formation. […] Biofilms using a combination of Streptococcus pneumonia and Streptococcus mitis were grown in a microtiter plate after being treated with cod trypsins or placebo. After allowing the biofilms to grow for 4 hours the wells were stained with crystal violet followed by dissolution with acetic acid. Biofilm formation was measured as absorbance at 492 nm, and normalized to untreated biofilm. […] Statistical significance of the difference, as evaluated by Student's t test, is indicated by symbols above the boxes where n.s. is p >0.05, * is p<0.05, ** p<0.01, and *** p<0.001.
After allowing the biofilms to grow for 4 hours the wells were stained with crystal violet followed by dissolution with acetic acid. Biofilm formation was measured as absorbance at 492 nm, and normalized to untreated biofilm. […] Cod trypsins prevent biofilm formation in a concentration dependent manner. […] Biofilm formation was measured as absorbance at 492 nm, and normalized to untreated biofilm. […] Statistical significance of the difference, as evaluated by Student's t test, is indicated by symbols above the boxes where n.s. is p >0.05, * is p<0.05, ** p<0.01, and *** p<0.001.

[3] = absorbance at 492 nm normalized to untreated biofilm
[4] = FIG. 3, 96 well plate image, crystal violet

Molecule: CO/N=C(\C(=O)N[C@@H]1C(=O)N2C(C(=O)O)=C(COC(C)=O)CS[C@H]12)c1csc(N)n1 [cefotaxime]
- biofilm disruption by antibiotic and cod trypsin combination compared with antibiotic alone [1, 3]: more effective in disrupting bacterial biofilm than antibiotics alone
- biofilm disruption by combination of cod trypsin and antibiotic compared with either alone ([1]; FIG. 2, absorbance at 492 nm normalized to untreated biofilm, ANOVA): more effective in disrupting bacterial biofilm than either cod trypsins or antibiotics alone

Molecule: CC[C@H]1OC(=O)[C@H](C)[C@@H](O[C@H]2C[C@@](C)(OC)[C@@H](O)[C@H](C)O2)[C@H](C)[C@@H](O[C@@H]2O[C@H](C)C[C@H](N(C)C)[C@H]2O)[C@](C)(O)C[C@@H](C)C(=O)[C@H](C)[C@@H](O)[C@]1(C)O [erythromycin]
- biofilm disruption by antibiotic and cod trypsin combination compared with antibiotic alone [1, 3]: more effective in disrupting bacterial biofilm than antibiotics alone

Molecule: Cc1onc(-c2ccccc2)c1C(=O)N[C@@H]1C(=O)N2[C@@H]1SC(C)(C)[C@@H]2C(=O)O [oxacillin]
- biofilm disruption by antibiotic and cod trypsin combination compared with antibiotic alone [1, 3]: more effective in disrupting bacterial biofilm than antibiotics alone

Molecule: CN[C@H](CC(C)C)C(=O)N[C@H]1C(=O)N[C@@H](CC(N)=O)C(=O)N[C@H]2C(=O)N[C@H]3C(=O)N[C@H](C(=O)N[C@H](C(=O)O)c4cc(O)cc(O)c4-c4cc3ccc4O)[C@H](O)c3ccc(c(Cl)c3)Oc3cc2cc(c3O[C@@H]2O[C@H](CO)[C@@H](O)[C@H](O)[C@H]2O[C@H]2C[C@](C)(N)[C@H](O)[C@H](C)O2)Oc2ccc(cc2Cl)[C@H]1O [vancomycin]
- biofilm disruption by antibiotic and cod trypsin combination compared with antibiotic alone [1, 3]: not to have significantly increased efficacy against the model biofilm when combined with trypsin
- effect of antibiotic in combination with cod trypsin on efficacy of cod trypsin [1, 4]: can increase the efficacy of cod trypsin
- effect of antibiotic alone on biofilm formation [1, 4]: the drug alone appears to increase biofilm formation
- effect of antibiotic alone on biofilm formation ([1]; FIG. 3, 96 well plate image, crystal violet, listed as Vancomycin): may increase biofilm formation

B1: cod trypsin: trypsin from Atlantic cod (Gadus morhua), a polypeptide having serine protease activity (protein, listed as Gadus morhua)
chain: IVGGYECTKHSQAHQVSLNSGYHFCGGSLVSKDWVVSAAHCYKSVLRVRLGEHHIRVNEGTEQYISSSSVIRHPNYSSYNINNDIMLIKLTKPATLNQYVHAVALPTECAADATMCTVSGWGNTMSSVADGDKLQCLSLPILSHADCANSYPGMITQSMFCAGYLEGGKDSCQGDSGGPVVCNGVLQGVVSWGYGCAERDHPGVYAKVCVLSGWVRDTMANY
- lethality to the bacteria (bacteria): not lethal to the bacteria
- time in which cod trypsins disrupt bacterial biofilm ([1]; FIG. 6, at concentrations 8 U/g or higher): less than 2 minutes
- concentrations at which cod trypsins are very effective in disrupting bacterial biofilm ([1]; FIG. 6, log reduction compared to placebo treated biofilm): ≥ 8 U/g
- disruption of super biofilm by cod trypsins alone [1]: effective at removing biofilms at the higher concentration
- disruption of super biofilm by cod trypsins alone ([1]; listed as cod trypsins): very effective in disrupting the super biofilm; also recorded: very effective in disrupting bacterial biofilm; also recorded: disrupt the super biofilm in a concentration dependent manner; also recorded: quite capable of both removing bacteria from and partially prevent reattachment of bacteria to surfaces in a concentration dependent manner
- prevention of biofilm formation by pre-treatment of bacteria [2]: can prevent the formation of biofilms in a concentration dependent manner
- prevention of biofilm formation by pre-treatment of bacteria ([2]; listed as cod trypsin composition): very effective in preventing bacterial biofilm formation
- prevention of biofilm formation by pre-treatment of bacteria ([2]; listed as cod trypsins): very effective in preventing bacterial biofilm formation
